Source: patent US9169213B2, “Method of weight management” (Arena Pharmaceuticals, Inc., priority 2012, dated 2015)
“And” between values parts separate entries of the source, which are not always exact repeats. Identical values can stand only once.

Tests used:
Type in all cases: in vivo, human
[1] = Pooled BLOOM and BLOSSOM Phase 3 studies: Week 52 outcomes by Week 12/Week 24 responder status, patients without T2DM; details: for Diastolic BP, Week 52 Change from Baseline Mean (SE) / HbA1c, Week 52 Change from Baseline Mean (SE) / Heart Rate, Week 52 Change from Baseline Mean (SE) / Systolic BP, Week 52 Change from Baseline Mean (SE): Without T2DM
Description: APD356-009 (“BLOOM”) was a 104-week, placebo controlled study that assessed the safety and efficacy of lorcaserin 10 mg BID in overweight and obese patients, with concurrent behavior modification. The primary efficacy objective during Year 1 was to evaluate weight loss; the primary objective during Year 2 was to assess the ability of lorcaserin to maintain body weight loss that was achieved during Year 1. At study start, each patient received randomized, double blind treatment assignments for Year 1 and for Year 2 (all patients were given a new randomization number for Year 2 to assure that patients and study personnel remained blinded to treatment assignments). All patients assigned to placebo during Year 1 (50% of randomized population) remained on placebo in Year 2. Patients assigned to lorcaserin during Year 1 were randomly assigned to stay on lorcaserin during Year 2 (⅔ of Year 1 lorcaserin patients) or to switch to placebo (⅓ of Year 1 lorcaserin patients).
APD356-011 (“BLOSSOM”) was a 52-week, placebo controlled study that evaluated the effect of two lorcaserin doses (10 mg BID and 10 mg QD) on categorical and total weight loss with concurrent behavior modification. Patients were randomized in a ratio of 2:1:2 to lorcaserin 10 mg BID, 10 mg QD, or placebo.
(§1) An analysis of early weight loss was performed, at each visit after baseline through Week 24, as a predictor of ultimate weight loss success, as defined by achieving at least about 5% weight loss at 52 weeks, or at least about 10% weight loss at 52 weeks.

[2] = BLOOM-DM (APD356-010) Phase 3 study: Week 52 outcomes by Week 12/Week 24 responder status, patients with type 2 diabetes mellitus; details: for Diastolic BP, Week 52 Change from Baseline Mean (SE) / HbA1c, Week 52 Change from Baseline Mean (SE) / Heart Rate, Week 52 Change from Baseline Mean (SE) / Systolic BP, Week 52 Change from Baseline Mean (SE): With T2DM
Description: APD356-010 (BLOOM-DM) was a 52-week, placebo controlled study that evaluated the effect of two lorcaserin doses (10 mg BID and 10 mg QD) on categorical and total weight loss with concurrent behavior modification in 604 patients with type 2 diabetes mellitus managed with oral hypoglycemic agents. Randomization to the 10 mg once daily group was halted by protocol amendment in order to accelerate enrollment, resulting in final group sizes of 253 (placebo), 95 (lorcaserin QD) and 256 (lorcaserin BID).
as §1
Table 3 and Table 4 provide the sensitivity, specificity, positive predicted value (PPV) and negative predictive value (NPV) at Weeks 12 and 24 for at least about 5% and at least about 10% weight loss at Week 52 in different studies. The rounded percent weight loss at Week 12 for at least 5% and at least about 10% weight loss at Week 52 are about 5% and about 6%, respectively. Using the about 6% weight loss at Week 12 as a criterion enhances the PPV for both about 5% and about 10% categorical weight loss at Week 52, but at the expense of excluding about 10% and about 4% more of the about 5% categorical responders at Week 52 in patients without and with diabetes, respectively, based upon NPV. The rounded optimal thresholds at Week 24 for at least about 5% and at least about 10% weight loss at Week 52 are about 6% and about 9%, respectively. Using the 9% weight loss criterion at Week 24 enhances the PPV for both about 5% and about 10% categorical weight loss at Week 52, but at the expense of excluding about 19% and about 9% more of the about 5% categorical responders at Week 52 in patients without and with diabetes, respectively, based upon NPV. As described below, if at least about a 5% weight loss criterion is applied, patients achieving this milestone will achieve an average of about 10.8% weight loss in patients without diabetes and about 9.1% weight loss in patients with diabetes at Week 52.
Tables 6 and 7, below, present weight loss, vital sign, and glycemic changes at Week 52 in pooled patients without diabetes, patients with T2DM, and pooled patients with impaired fasting glucose (IFG; ≧100 mg/dL) who were Week 12 responders.

[3] = Lorcaserin pivotal phase 3 clinical trial program (NDA summary)
Excerpt: The NDA submission is based on an extensive data package from lorcaserin's clinical development program that includes 18 clinical trials totaling 8,576 patients. […] About two-thirds of patients achieved at least 5% weight loss and over one-third achieved at least 10% weight loss. On average, patients lost 17 to 18 pounds or about 8% of their weight. Secondary endpoints, including body composition, lipids, cardiovascular risk factors and glycemic parameters improved compared to placebo. In addition, heart rate and blood pressure went down. […] Lorcaserin improved quality of life, and there was no signal for depression or suicidal ideation. The only adverse event that exceeded the placebo rate by 5% was generally mild or moderate, transient headache. Based on a normal BMI of 25, patients in the first phase 3 trial lost about one-third of their excess body weight. The average weight loss was 35 pounds or 16% of body weight for the top quartile of patients in the second phase 3 trial.

[4] = Week 12 Non-responder (<5%), Completers Population, 10 mg BID
[5] = Week 12 Non-responder (<5%), MITT with LOCF, 10 mg BID
[6] = Week 12 Responder (≧5% weight loss), Completers Population, 10 mg BID
[7] = Week 12 Responder (≧5% weight loss), MITT with LOCF, 10 mg BID
[8] = Week 12 responders without diabetes
[9] = Week 12 Nonresponder (5%), 10 mg BID
[10] = Week 12 Responder (5%), 10 mg BID
[11] = of patients with observed Week 12 data, without diabetes, 10 mg BID, listed as Lorcaserin
[12] = Week 12 Responder (≧5%), Completers Population, 10 mg BID
[13] = of patients with observed Week 12 data, type 2 diabetes, 10 mg BID

C[C@H]1CNCCc2ccc(Cl)cc21 [lorcaserin, (R)-8-chloro-1-methyl-2,3,4,5-tetrahydro-1H-3-benzazepine]
Week 52 Weight 5% Responder [1, 4]: 35.9% | Week 52 Weight 10% Responder [1, 4]: 7.4% | Week 52 Weight Mean (SE) Change from Baseline, kg [1, 4]: −3.50 (0.18) kg | Week 52 Weight Mean (SE) Percent Change from Baseline, % [1, 4]: −3.44 (0.18) % | Week 52 Weight 10% Responder [1, 5]: 4.7% | Week 52 Weight Mean (SE) Change from Baseline, kg [1, 5]: −2.76 (0.12) kg | Week 52 Weight Mean (SE) Percent Change from Baseline, % [1, 5]: −2.73 (0.12) % | Week 52 Weight 5% Responder [1, 6]: 85.8% | Week 52 Weight 10% Responder [1, 6]: 55.9% | Week 52 Weight Mean (SE) Change from Baseline, kg [1, 6]: −11.31 (0.21) kg | Week 52 Weight Mean (SE) Percent Change from Baseline, % [1, 6]: −11.52 (0.21) % | Week 52 Weight 10% Responder [1, 7]: 49.8% | Week 52 Weight Mean (SE) Change from Baseline, kg [1, 7]: −10.63 (0.18) kg | Week 52 Weight Mean (SE) Percent Change from Baseline, % [1, 7]: −10.84 (0.18) % | Week 52 reduction in diastolic blood pressure [1, 8]: 2.5 mmHg | Week 52 reduction in heart rate [1, 8]: 2.5 BPM | Week 52 reduction in systolic blood pressure [1, 8]: 3.4 mmHg | Diastolic BP, Week 52 Change from Baseline Mean (SE) [1, 9]: −1.02 (0.25) | HbA1c, Week 52 Change from Baseline Mean (SE) [1, 9]: −0.05 (0.01) | Heart Rate, Week 52 Change from Baseline Mean (SE) [1, 9]: −0.29 (0.26) | Systolic BP, Week 52 Change from Baseline Mean (SE) [1, 9]: −0.82 (0.34) | Diastolic BP, Week 52 Change from Baseline Mean (SE) [1, 10]: −2.52 (0.25) | HbA1c, Week 52 Change from Baseline Mean (SE) [1, 10]: −0.18 (0.01) | Heart Rate, Week 52 Change from Baseline Mean (SE) [1, 10]: −2.45 (0.26) | Systolic BP, Week 52 Change from Baseline Mean (SE) [1, 10]: −3.39 (0.34) | Week 12 Non-Responder (<5% wt loss), percentage of patients ([1]; of patients with observed Week 12 data, without diabetes, 10 mg BID): 1,286/2,537(50.7%) | Week 12 Non-Responder (<5% wt loss), percentage of patients [1, 11]: 1286 (50.7%) | Week 12 Responder (at least 5% weight loss at Week 12), percentage of patients [1, 11]: 1251 (49.3%) | average weight loss at Week 52 ([1]; patients without diabetes achieving at least about 5% weight loss at Week 12): about 10.8% | Week 52 Weight 5% Responder [2, 4]: 29.0% | Week 52 Weight 10% Responder [2, 4]: 10.0% | Week 52 Weight Mean (SE) Change from Baseline, kg [2, 4]: −3.45 (0.44) kg | Week 52 Weight Mean (SE) Percent Change from Baseline, % [2, 4]: −3.36 (0.42) % | Week 52 Weight 5% Responder [2, 5]: 25.2% | Week 52 Weight 10% Responder [2, 5]: 8.6% | Week 52 Weight Mean (SE) Change from Baseline, kg [2, 5]: −3.20 (0.36) kg | Week 52 Weight Mean (SE) Percent Change from Baseline, % [2, 5]: −3.13 (0.35) % | Week 52 Weight 5% Responder [2, 7]: 71% and 70.5% | Week 52 Weight 10% Responder [2, 7]: 36% and 35.9% | Week 52 Weight Mean (SE) Change from Baseline, kg [2, 7]: −9.26 (0.77) kg | Week 52 Weight Mean (SE) Percent Change from Baseline, % [2, 7]: −9.07 (0.70) % | Week 52 Weight 5% Responder [2, 12]: 70.8% | Week 52 Weight 10% Responder [2, 12]: 40.0% | Week 52 Weight Mean (SE) Change from Baseline, kg [2, 12]: −9.77 (0.89) kg | Week 52 Weight Mean (SE) Percent Change from Baseline, % [2, 12]: −9.49 (0.80) % | change in HbA1c at Week 52 ([2]; Week 12 non-responders with type 2 diabetes): −0.84% | Week 52 reduction in diastolic blood pressure ([2]; Week 12 responders with T2DM): 1.9 mmHg | Week 52 reduction in heart rate ([2]; Week 12 responders with T2DM): 3.2 BPM | Week 52 reduction in systolic blood pressure ([2]; Week 12 responders with T2DM): 2.6 mmHg | A1C W52 Change ([2]; Week 12 responders, patients with T2DM, 10 mg BID): −1.2% | Diastolic BP, Week 52 Change from Baseline Mean (SE) [2, 9]: −1.07 (0.86) | HbA1c, Week 52 Change from Baseline Mean (SE) [2, 9]: −0.84 (0.09) | Heart Rate, Week 52 Change from Baseline Mean (SE) [2, 9]: −0.87 (0.73) | Systolic BP, Week 52 Change from Baseline Mean (SE) [2, 9]: −0.55 (1.11) | Diastolic BP, Week 52 Change from Baseline Mean (SE) [2, 10]: −1.91 (1.01) | HbA1c, Week 52 Change from Baseline Mean (SE) [2, 10]: −1.20 (0.11) | Heart Rate, Week 52 Change from Baseline Mean (SE) [2, 10]: −3.24 (1.21) | Systolic BP, Week 52 Change from Baseline Mean (SE) [2, 10]: −2.59 (1.73) | Week 12 Non-Responder, percentage of patients [2, 13]: 139 (64.1%) | Week 12 Responder (at least 5% weight loss at Week 12), percentage of patients [2, 13]: 35.9% | Week 12 Responder (at least 5% weight loss at Week 12), percentage of patients ([2]; of patients with observed Week 12 data, type 2 diabetes, 10 mg BID, listed as Lorcaserin): 78 (35.9%) | average weight loss at Week 52 ([2]; patients with diabetes achieving at least about 5% weight loss at Week 12): about 9.1% | risk of cardiac valvulopathy ([3]; phase 3 program): did not increase | average weight lost, of their weight ([3]; pivotal phase 3 program): about 8% | average weight loss of body weight, top quartile of patients ([3]; second phase 3 trial): 16% | average weight loss, top quartile of patients ([3]; second phase 3 trial): 35 pounds
